The term IC50 denotes the concentration that inhibits the measured activity by half. The low end stands for greater potency in that assay, the high end for weaker potency in that assay.

One assay is filed under the species Mus musculus. The experiment in a line: Uptake rate for compound into Balbc3T3 cells normalized to 100 uM was measured. Type of assay: functional.
Assay [1] concerns the target T1, Tyrosine-protein kinase ABL1 (Homo sapiens, UniProt P00519). The experiment in a line: Inhibition of [35S]-labeled SH2-GST Abl binding to the phospho-PDGF receptor intracellular domain.
For assay [2], the target named is T1, Tyrosine-protein kinase ABL1. The experiment in a line: Radioligand displacement assay for the binding of [125I]Glu-Pro-Gln-pTyr-Glu-Glu-Ile-Pro-Ile-Tyr-Leu to ABL SH2 domain.

Where a SMILES comes first, the peptide text is derived from it. [ ]: non-standard residue; d: D form. pY = N[C@@H](Cc1ccc(OP(=O)(O)O)cc1)C(=O)O

T1 sequence (P00519 whole entry, the tested form may be a part): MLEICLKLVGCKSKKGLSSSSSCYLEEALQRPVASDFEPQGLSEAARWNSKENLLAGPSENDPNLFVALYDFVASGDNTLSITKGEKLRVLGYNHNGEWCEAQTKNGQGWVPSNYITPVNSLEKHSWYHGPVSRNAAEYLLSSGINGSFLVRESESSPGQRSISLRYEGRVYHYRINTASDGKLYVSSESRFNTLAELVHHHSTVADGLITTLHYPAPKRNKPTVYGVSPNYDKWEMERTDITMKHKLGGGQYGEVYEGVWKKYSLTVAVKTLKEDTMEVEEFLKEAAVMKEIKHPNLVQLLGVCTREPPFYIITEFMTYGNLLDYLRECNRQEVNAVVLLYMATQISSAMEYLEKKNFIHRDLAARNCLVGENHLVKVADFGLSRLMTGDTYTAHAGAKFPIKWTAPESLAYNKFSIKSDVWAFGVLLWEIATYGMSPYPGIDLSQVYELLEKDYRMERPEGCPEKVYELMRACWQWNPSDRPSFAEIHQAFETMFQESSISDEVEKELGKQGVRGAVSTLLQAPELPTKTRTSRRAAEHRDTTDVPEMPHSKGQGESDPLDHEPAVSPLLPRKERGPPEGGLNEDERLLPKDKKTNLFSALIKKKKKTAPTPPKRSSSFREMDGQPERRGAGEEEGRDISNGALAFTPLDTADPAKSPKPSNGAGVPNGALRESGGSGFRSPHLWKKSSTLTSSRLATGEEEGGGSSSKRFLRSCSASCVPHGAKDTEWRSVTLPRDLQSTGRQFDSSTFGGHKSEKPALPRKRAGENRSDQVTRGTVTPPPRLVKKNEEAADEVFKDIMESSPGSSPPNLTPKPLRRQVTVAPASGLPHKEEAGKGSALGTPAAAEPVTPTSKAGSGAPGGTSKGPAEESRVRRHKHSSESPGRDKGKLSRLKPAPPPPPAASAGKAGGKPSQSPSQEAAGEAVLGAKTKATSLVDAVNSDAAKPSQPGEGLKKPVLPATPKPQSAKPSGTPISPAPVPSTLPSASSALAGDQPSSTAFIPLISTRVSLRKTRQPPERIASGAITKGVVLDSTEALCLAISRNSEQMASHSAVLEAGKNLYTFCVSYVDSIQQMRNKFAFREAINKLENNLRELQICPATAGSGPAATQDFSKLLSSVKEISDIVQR

With `CC[C@H](NC(=O)[C@H](Cc1ccc(P(=O)(OCOC(=O)C(C)(C)C)OCOC(=O)C(C)(C)C)cc1)NC(C)=O)C(=O)N(C)CCCC1CCCCC1`, the Uptake rate (nM min-1 cm**-2) in the assay filed under Mus musculus turned out to be 6.6.
In the case of `CCOP(=O)(OCC)C(F)(F)c1ccc(C[C@H](NC(C)=O)C(=O)N[C@@H](CCC(=O)O)C(=O)N(C)CCCC2CCCCC2)cc1`, in the assay listed under Mus musculus, the Uptake rate (nM min-1 cm**-2) was above 0.002.
On to `CC[C@H](C)[C@H](NC(=O)[C@H](CCC(=O)O)NC(=O)[C@H](CCC(=O)O)NC(=O)[C@H](Cc1ccc(OP(=O)(O)O)cc1)NC(C)=O)C(=O)N[C@@H](CCC(=O)O)C(=O)O` (Ac-[pY]EEIE-OH), for which the IC50 was found to be 15 µM in assay [1] and 7.9 µM in assay [2].
For the compound `CC[C@H](NC(=O)[C@H](Cc1ccc(C(F)(F)P(=O)(O)OCOC(=O)C(C)(C)C)cc1)NC(C)=O)C(=O)N(C)CCCC1CCCCC1`, in the assay listed under Mus musculus, the Uptake rate (nM min-1 cm**-2) was 0.01.
The same measure, in the same setting: with `CCOP(=O)(OCC)C(F)(F)c1ccc(C[C@H](NC(C)=O)C(=O)N[C@@H](CCC(=O)OC(C)(C)C)C(=O)N(C)CCCC2CCCCC2)cc1` the figure was 3.2; with `CCOP(=O)(OCC)c1ccc(C[C@H](NC(C)=O)C(=O)N[C@@H](CC)C(=O)N(C)CCCC2CCCCC2)cc1`, 0.092.
